# Laboratory results reported in patent US11602533B2, “Crenolanib combination therapy” (Arog Pharmaceuticals, Inc., priority 2018, dated 2023).
# Tests used:
# [1] = system: tumors; conditions: treatment with imatinib; cited from earlier work
# [2] = system: tumor interstitial pressure; conditions: rat model; cited from earlier work
# [3] = system: implanted tumors; conditions: mouse; cited from earlier work
# [4] = system: renal cancer patients; conditions: monotherapy; cited from earlier work
# [5] = Clinical tolerability of crenolanib, single agent and with chemotherapy; format: in vivo; conditions: single agent and combined with chemotherapy; most common adverse events gastrointestinal toxicities, elevated liver enzymes and bilirubin, edema/effusions
# Excerpt: Unlike axitinib, VEGF/VEGFR antibodies are associated with minimal toxicity and the combination of these antibodies and chemotherapy is very well-tolerated. In particular, axinitinib monotherapy (in renal cancer patients) is associated with notable toxicities, including all-grade fatigue, anorexia, nausea, diarrhea and hand-foot syndrome in >25% of patients. Additionally, paclitaxel is less myelosuppressive than docetaxel. These improved toxicities support the combination of crenolanib and an alternative VEGFR inhibitor (including ramucirumab) in addition to and chemotherapy in patients with advanced cancers.
# [6] = system: gastric cancer; conditions: monotherapy; cited from earlier work
molecule,measurement,setting,value
Cc1ccc(NC(=O)c2ccc(CN3CCN(C)CC3)cc2)cc1Nc1nccc(-c2cccnc2)n1 [Imatinib],effect on anti-tumor effect of paclitaxel,[1],increased anti-tumor effect of paclitaxel
same,effect on paclitaxel uptake by the tumors,[1],increased paclitaxel uptake by the tumors
same,effect on capillary-to-interstitium transport of solutes,[2],increase the capillary-to-interstitium transport of solutes
same,effect on interstitial hypertension,[2],decrease interstitial hypertension
Cc1cc(C)c(/C=C2\C(=O)Nc3ccccc32)[nH]1 [SU5416],effect on established tumor blood vessels,[3],failed to induce regression of established blood vessels
same,effect on tumor growth,[3],prevented tumor growth
Cc1[nH]c(/C=C2\C(=O)Nc3ccccc32)c(C)c1CCC(=O)O [SU6668],effect on established tumor blood vessels,[3],regression of established tumor vessels
same,effect on tumor growth,[3],suppression of tumor growth
CNC(=O)c1ccccc1Sc1ccc2c(/C=C/c3ccccn3)n[nH]c2c1 [axinitinib],"patients with all-grade fatigue, anorexia, nausea, diarrhea and hand-foot syndrome",[4],> 25%
"CC1(COc2ccc3c(c2)ncn3-c2ccc3cccc(N4CCC(N)CC4)c3n2)COC1 [crenolanib, 4-Piperidinamine, 1-[2-[5-[(3-methyl-3-oxetanyl)methoxy]-1H-benzimidazol-1-yl]-8-quinolinyl]]",tolerability,[5],generally well tolerated
ramucirumab: antibody against VEGF receptor 2 (VEGFR2),progression-free survival (PFS) improvement over placebo,[6],0.8 months
same,response rate (RR),[6],3%
